Source: PubChem BioAssay AID2060894 (Molecular Pharmacology Branch, DTP, NCI, 2025)
Each block holds one molecule with its values, some of them ahead of it.

System: K12877-001-R-J1-PDC complex spheroid viability
Assay: Anticancer human tumor K12877-001-R-J1-PDC patient-derived lung adenocarcinoma cell line growth inhibition [RAS]
Conditions: for IC50: curve of first compound; for viability, T/C: stronger effect = lower value
How it was run: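 Agents were tested in combination matrices in half-log decrements from a top concentration at or near clinical Cmax (10 microM if undetermined). Targets were multi-cell spheroids of tumour lines plus HUVEC and MSC stromal cells.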

[1] = second compound 0.00316 µM, first compound 0.0316 µM
[2] = second compound 0.00316 µM, first compound 0.1 µM
[3] = second compound 0.00316 µM, first compound 0.316 µM
[4] = second compound 0.00316 µM, first compound 1 µM
[5] = second compound 0.00316 µM, first compound 3.16 µM
[6] = second compound 0.00316 µM, first compound 10 µM
[7] = second compound 0.01 µM, first compound 0.0316 µM
[8] = second compound 0.01 µM, first compound 0.1 µM
[9] = second compound 0.01 µM, first compound 0.316 µM
[10] = second compound 0.01 µM, first compound 1 µM
[11] = second compound 0.01 µM, first compound 3.16 µM
[12] = second compound 0.01 µM, first compound 10 µM
[13] = second compound 0.0316 µM, first compound 0.0316 µM
[14] = second compound 0.0316 µM, first compound 0.1 µM
[15] = second compound 0.0316 µM, first compound 0.316 µM
[16] = second compound 0.0316 µM, first compound 1 µM
[17] = second compound 0.0316 µM, first compound 3.16 µM
[18] = second compound 0.0316 µM, first compound 10 µM
[19] = second compound 0.1 µM, first compound 0.0316 µM
[20] = second compound 0.1 µM, first compound 0.1 µM
[21] = second compound 0.1 µM, first compound 0.316 µM
[22] = second compound 0.1 µM, first compound 1 µM
[23] = second compound 0.1 µM, first compound 3.16 µM
[24] = second compound 0.1 µM, first compound 10 µM
[25] = second compound 0.316 µM, first compound 0.0316 µM
[26] = second compound 0.316 µM, first compound 0.1 µM
[27] = second compound 0.316 µM, first compound 0.316 µM
[28] = second compound 0.316 µM, first compound 1 µM
[29] = second compound 0.316 µM, first compound 3.16 µM
[30] = second compound 0.316 µM, first compound 10 µM
[31] = second compound 1 µM, first compound 0.0316 µM
[32] = second compound 1 µM, first compound 0.1 µM
[33] = second compound 1 µM, first compound 0.316 µM
[34] = second compound 1 µM, first compound 1 µM
[35] = second compound 1 µM, first compound 3.16 µM
[36] = second compound 1 µM, first compound 10 µM
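Further: spheroids exposed to agents for one week before readout.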
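Wherever viability, T/C is given: tumour cells co-cultured with HUVEC and mesenchymal stem cells in spheroids.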

- IC50 (second compound 0.00316 µM): < 31.6 nM
- IC50 (second compound 0.01 µM): < 31.6 nM
- IC50 (second compound 0.0316 µM): < 31.6 nM
- IC50 (second compound 0.1 µM): < 31.6 nM
- IC50 (second compound 0.316 µM): < 31.6 nM
- IC50 (second compound 1 µM): < 31.6 nM
Compound: CC(=O)OC12COC1CC(O)C1(C)C(=O)C(O)C3=C(C)C(OC(=O)C(O)C(NC(=O)OC(C)(C)C)c4ccccc4)CC(O)(C(OC(=O)c4ccccc4)C21)C3(C)C (stereo not drawn) + C=CC(=O)N1CCN(c2nc(OCC3CCCN3C)nc3c(F)c(-c4nc(N)cc(C)c4C(F)(F)F)c(Cl)cc23)C(C)C1
- viability, T/C [1]: 5.23%
- viability, T/C [2]: 4.77%
- viability, T/C [3]: 3.44%
- viability, T/C [4]: 4.18%
- viability, T/C [5]: 4.77%
- viability, T/C [6]: 16.1%
- viability, T/C [7]: 5.39%
- viability, T/C [8]: 5.01%
- viability, T/C [9]: 3.61%
- viability, T/C [10]: 2.92%
- viability, T/C [11]: 3.84%
- viability, T/C [12]: 13.6%
- viability, T/C [13]: 6.48%
- viability, T/C [14]: 4.68%
- viability, T/C [15]: 3.7%
- viability, T/C [16]: 2.91%
- viability, T/C [17]: 3.42%
- viability, T/C [18]: 10.1%
- viability, T/C [19]: 6.61%
- viability, T/C [20]: 4.59%
- viability, T/C [21]: 2.95%
- viability, T/C [22]: 3.77%
- viability, T/C [23]: 5.42%
- viability, T/C [24]: 11.1%
- viability, T/C [25]: 5.94%
- viability, T/C [26]: 3.96%
- viability, T/C [27]: 3.29%
- viability, T/C [28]: 3.54%
- viability, T/C [29]: 4.12%
- viability, T/C [30]: 10.3%
- viability, T/C [31]: 4.92%
- viability, T/C [32]: 3.77%
- viability, T/C [33]: 4.87%
- viability, T/C [34]: 4.09%
- viability, T/C [35]: 4.48%
- viability, T/C [36]: 11%

- IC50 (second compound 0.00316 µM): 5.1 nM
- IC50 (second compound 0.01 µM): 4.8 nM
- IC50 (second compound 0.0316 µM): 4.04 nM
- IC50 (second compound 0.1 µM): 4.57 nM
- IC50 (second compound 0.316 µM): 4.75 nM
- IC50 (second compound 1 µM): 4.35 nM
Compound: CCc1c2c(nc3ccc(O)cc13)-c1cc3c(c(=O)n1C2)COC(=O)[C@]3(O)CC + C=CC(=O)N1CCN(c2nc(OCC3CCCN3C)nc3c(F)c(-c4nc(N)cc(C)c4C(F)(F)F)c(Cl)cc23)C(C)C1
- viability, T/C (second compound 0.00316 µM, first compound 0.000949 µM): 88.5%
- viability, T/C (second compound 0.00316 µM, first compound 0.003 µM): 84%
- viability, T/C (second compound 0.00316 µM, first compound 0.00949 µM): 10.2%
- viability, T/C (second compound 0.00316 µM, first compound 0.03 µM): 4.07%
- viability, T/C (second compound 0.00316 µM, first compound 0.0949 µM): 2.12%
- viability, T/C (second compound 0.00316 µM, first compound 0.3 µM): 1.09%
- viability, T/C (second compound 0.01 µM, first compound 0.000949 µM): 89%
- viability, T/C (second compound 0.01 µM, first compound 0.003 µM): 77.8%
- viability, T/C (second compound 0.01 µM, first compound 0.00949 µM): 9.78%
- viability, T/C (second compound 0.01 µM, first compound 0.03 µM): 4.25%
- viability, T/C (second compound 0.01 µM, first compound 0.0949 µM): 2.46%
- viability, T/C (second compound 0.01 µM, first compound 0.3 µM): 1.37%
- viability, T/C (second compound 0.0316 µM, first compound 0.000949 µM): 88.3%
- viability, T/C (second compound 0.0316 µM, first compound 0.003 µM): 64.4%
- viability, T/C (second compound 0.0316 µM, first compound 0.00949 µM): 8.38%
- viability, T/C (second compound 0.0316 µM, first compound 0.03 µM): 4.14%
- viability, T/C (second compound 0.0316 µM, first compound 0.0949 µM): 2.38%
- viability, T/C (second compound 0.0316 µM, first compound 0.3 µM): 1.15%
- viability, T/C (second compound 0.1 µM, first compound 0.000949 µM): 75.2%
- viability, T/C (second compound 0.1 µM, first compound 0.003 µM): 73.2%
- viability, T/C (second compound 0.1 µM, first compound 0.00949 µM): 9.95%
- viability, T/C (second compound 0.1 µM, first compound 0.03 µM): 2.92%
- viability, T/C (second compound 0.1 µM, first compound 0.0949 µM): 1.65%
- viability, T/C (second compound 0.1 µM, first compound 0.3 µM): 1.21%
- viability, T/C (second compound 0.316 µM, first compound 0.000949 µM): 83.4%
- viability, T/C (second compound 0.316 µM, first compound 0.003 µM): 77.9%
- viability, T/C (second compound 0.316 µM, first compound 0.00949 µM): 7.81%
- viability, T/C (second compound 0.316 µM, first compound 0.03 µM): 3.82%
- viability, T/C (second compound 0.316 µM, first compound 0.0949 µM): 2.34%
- viability, T/C (second compound 0.316 µM, first compound 0.3 µM): 2.52%
- viability, T/C (second compound 1 µM, first compound 0.000949 µM): 82.2%
- viability, T/C (second compound 1 µM, first compound 0.003 µM): 69.9%
- viability, T/C (second compound 1 µM, first compound 0.00949 µM): 8.23%
- viability, T/C (second compound 1 µM, first compound 0.03 µM): 5.41%
- viability, T/C (second compound 1 µM, first compound 0.0949 µM): 2.4%
- viability, T/C (second compound 1 µM, first compound 0.3 µM): 1.32%

- IC50 (second compound 0.00316 µM): > 10000 nM
- IC50 (second compound 0.01 µM): 8900 nM
- IC50 (second compound 0.0316 µM): 6880 nM
- IC50 (second compound 0.1 µM): 5240 nM
- IC50 (second compound 0.316 µM): 5890 nM
- IC50 (second compound 1 µM): 9970 nM
Compound: NC1c2ccccc2OC12CCN(c1cnc3c(N4CCCc5ncccc54)n[nH]c3n1)CC2 (stereo not drawn) + C=CC(=O)N1CCN(c2nc(OCC3CCCN3C)nc3c(F)c(-c4nc(N)cc(C)c4C(F)(F)F)c(Cl)cc23)C(C)C1
- viability, T/C [1]: 82.2%
- viability, T/C [2]: 89.4%
- viability, T/C [3]: 83.9%
- viability, T/C [4]: 84.5%
- viability, T/C [5]: 63.4%
- viability, T/C [6]: 52.7%
- viability, T/C [7]: 82.7%
- viability, T/C [8]: 92.4%
- viability, T/C [9]: 84.6%
- viability, T/C [10]: 78.1%
- viability, T/C [11]: 65.5%
- viability, T/C [12]: 48.2%
- viability, T/C [13]: 89.8%
- viability, T/C [14]: 79.6%
- viability, T/C [15]: 75.4%
- viability, T/C [16]: 69.3%
- viability, T/C [17]: 57.5%
- viability, T/C [18]: 45.9%
- viability, T/C [19]: 97.3%
- viability, T/C [20]: 79.3%
- viability, T/C [21]: 67.4%
- viability, T/C [22]: 64.5%
- viability, T/C [23]: 54.7%
- viability, T/C [24]: 44.4%
- viability, T/C [25]: 81.5%
- viability, T/C [26]: 73.5%
- viability, T/C [27]: 70.3%
- viability, T/C [28]: 63.4%
- viability, T/C [29]: 48.9%
- viability, T/C [30]: 48.9%
- viability, T/C [31]: 81.9%
- viability, T/C [32]: 95.9%
- viability, T/C [33]: 66.7%
- viability, T/C [34]: 76.7%
- viability, T/C [35]: 55.5%
- viability, T/C [36]: 50.7%

- IC50 (second compound 0.00316 µM): 17.9 nM
- IC50 (second compound 0.01 µM): 16.9 nM
- IC50 (second compound 0.0316 µM): 16.1 nM
- IC50 (second compound 0.1 µM): 16.6 nM
- IC50 (second compound 0.316 µM): 14.4 nM
- IC50 (second compound 1 µM): 13.1 nM
Compound: Nc1ccn(C2OC(CO)C(O)C2(F)F)c(=O)n1 (stereo not drawn) + C=CC(=O)N1CCN(c2nc(OCC3CCCN3C)nc3c(F)c(-c4nc(N)cc(C)c4C(F)(F)F)c(Cl)cc23)C(C)C1
- viability, T/C (second compound 0.00316 µM, first compound 0.00316 µM): 95.9%
- viability, T/C (second compound 0.00316 µM, first compound 0.01 µM): 94.4%
- viability, T/C [1]: 6.55%
- viability, T/C [2]: 4.24%
- viability, T/C [3]: 4.05%
- viability, T/C [4]: 3.99%
- viability, T/C (second compound 0.01 µM, first compound 0.00316 µM): 93.7%
- viability, T/C (second compound 0.01 µM, first compound 0.01 µM): 83%
- viability, T/C [7]: 10.8%
- viability, T/C [8]: 4.22%
- viability, T/C [9]: 4.2%
- viability, T/C [10]: 4.01%
- viability, T/C (second compound 0.0316 µM, first compound 0.00316 µM): 83.5%
- viability, T/C (second compound 0.0316 µM, first compound 0.01 µM): 81.2%
- viability, T/C [13]: 6.08%
- viability, T/C [14]: 3.45%
- viability, T/C [15]: 5.01%
- viability, T/C [16]: 4.23%
- viability, T/C (second compound 0.1 µM, first compound 0.00316 µM): 87.8%
- viability, T/C (second compound 0.1 µM, first compound 0.01 µM): 84.7%
- viability, T/C [19]: 6.15%
- viability, T/C [20]: 4.69%
- viability, T/C [21]: 4.71%
- viability, T/C [22]: 3.18%
- viability, T/C (second compound 0.316 µM, first compound 0.00316 µM): 84.9%
- viability, T/C (second compound 0.316 µM, first compound 0.01 µM): 70.4%
- viability, T/C [25]: 6.26%
- viability, T/C [26]: 4.95%
- viability, T/C [27]: 4.16%
- viability, T/C [28]: 4.03%
- viability, T/C (second compound 1 µM, first compound 0.00316 µM): 83.5%
- viability, T/C (second compound 1 µM, first compound 0.01 µM): 63.4%
- viability, T/C [31]: 6.51%
- viability, T/C [32]: 3.92%
- viability, T/C [33]: 4.72%
- viability, T/C [34]: 5.35%
